Assay results from patent publication US10412965B2, “Use of the antifungal ilicicolin H in agriculture” (AGROBIOLOGICS, LLC, priority 2015, dated 2019).
Converted amounts (≈) assume the structure as drawn.

How the values were obtained:
[1] = system: Puccinia recondita; test: Leaf disk test at different concentrations, wheat; assay type: in vivo; conditions: for Leaf-piece test rates (20 ppm), efficacy / Leaf-piece test rates (60 ppm), efficacy / Leaf-piece test rates (200 ppm), efficacy: wheat, disease control relative to untreated check
[2] = system: Phytophthora infestans; assay type: in vivo; conditions: 200 ppm
[3] = system: Pythium dissimile; assay type: cell-based; conditions: 20 ppm
[4] = system: Alternaria solani; test: Leaf disk test at different concentrations, tomato; assay type: in vivo; conditions: preventative, disease control relative to untreated check
[5] = system: HeLa cells; conditions: cited from earlier work
[6] = system: Thanatephorus cucumeris (Rhizoctonia solani); test: Liquid-culture fungal growth inhibition test; assay type: cell-based
[7] = system: Mycosphaerella arachidis (Cercospora arachidicola); test: Liquid-culture fungal growth inhibition test; assay type: cell-based
[8] = system: mice; conditions: cited from earlier work
[9] = system: Phaeosphaeria nodorum (Septoria nodorum); test: Leaf disk test at different concentrations, wheat; assay type: in vivo; conditions: preventative, disease control relative to untreated check
[10] = system: Uromyces viciae-fabae; assay type: in vivo; conditions: 100 ppm
[11] = system: Pyrenophora teres; test: Leaf disk test at different concentrations, barley; assay type: in vivo; conditions: preventative, disease control relative to untreated check
[12] = system: Sclerotinia sclerotiorum; test: Liquid-culture fungal growth inhibition test; assay type: cell-based
[13] = system: Zymoseptoria tritici; test: Liquid-culture fungal growth inhibition test; assay type: cell-based
[14] = system: Gaeumannomyces graminis; test: Liquid-culture fungal growth inhibition test; assay type: cell-based
[15] = system: Gibberella zeae; assay type: cell-based; conditions: 20 ppm
[16] = system: Blumeria graminis f. sp. tritici (Erysiphe graminis); test: Leaf disk test at different concentrations, wheat; assay type: in vivo; conditions: preventative, disease control relative to untreated check
[17] = system: Botryotinia fuckeliana (Botrytis cinerea); test: Liquid-culture fungal growth inhibition test; assay type: cell-based
[18] = system: Glomerella lagenarium (Colletotrichum lagenarium); test: Liquid-culture fungal growth inhibition test; assay type: cell-based
[19] = system: Monographella nivalis (Microdochium nivale); test: Liquid-culture fungal growth inhibition test; assay type: cell-based
[20] = system: Alternaria solani; assay type: cell-based; conditions: 20 ppm
[21] = system: Botryotinia fuckeliana; assay type: cell-based; conditions: 20 ppm
[22] = system: Pythium ultimum; test: Liquid-culture fungal growth inhibition test; assay type: cell-based; conditions: antifungal activity relative to untreated check, photometric, 2-7 days
[23] = system: Phytophthora infestans; assay type: in vivo; conditions: tomato, preventative, disease control relative to untreated check
[24] = system: Zymoseptoria tritici; assay type: in vivo; conditions: 100 ppm
[25] = system: Fusarium culmorum; test: Liquid-culture fungal growth inhibition test; assay type: cell-based; conditions: antifungal activity relative to untreated check, photometric, 2-7 days
Experimental: Suspensions of mycelial fragments or conidia of a fungal species, prepared either freshly from liquid cultures of the fungus or from cryogenic storage, were directly mixed into nutrient broth. DMSO solutions of Ilicicolin H (max. 10 mg/ml) were diluted with 0.025% Tween 20 by a factor of 50, and 10μ L of this solution was pipetted into a microtitre plate (96-well format). The nutrient broth containing the fungal spores/mycelia fragments was then added to give a final concentration of Ilicicolin H. The test plates were incubated in the dark at 24° C. and 96% relative humidity. The inhibition of fungal growth was determined photometrically after 2-7 days, depending on the pathosystem, and percent antifungal activity relative to the untreated check was calculated.

[26] = system: Plasmopara viticola; test: Leaf disk test at different concentrations, grapevine; assay type: in vivo; conditions: preventative, disease control relative to untreated check
[27] = system: Magnaporthe grisea (Pyricularia oryzae); assay type: in vivo; conditions: rice, preventative, disease control relative to untreated check
[28] = 0.2 ppm, antifungal activity relative to untreated check, photometric, 2-7 days
[29] = 2 ppm, antifungal activity relative to untreated check, photometric, 2-7 days
[30] = 20 ppm, antifungal activity relative to untreated check, photometric, 2-7 days

In the case of `C/C=C/[C@H]1C(C(=O)c2c(O)c(-c3ccc(O)cc3)c[nH]c2=O)C=C(C)[C@H]2CC[C@H](C)C[C@@H]21` (stereo partly shown) [Ilicicolin H], the “Leaf-piece test rates (20 ppm), efficacy” value ([1]; curative) is reported as 0%, the “Leaf-piece test rates (20 ppm), efficacy” value ([1]; preventative) is reported as 0% and the “Leaf-piece test rates (60 ppm), efficacy” value ([1]; curative) is reported as 0%. For the same compound, the “Leaf-piece test rates (60 ppm), efficacy” value ([1]; preventative) was 50%, the “Leaf-piece test rates (200 ppm), efficacy” value ([1]; curative) was 0% and the “Leaf-piece test rates (200 ppm), efficacy” value ([1]; preventative) was 90%. For the same compound, the “activity in leaf disk test” value ([1]; wheat leaf disks) was “demonstrated activity”, the “activity in leaf-piece assay” value ([2]; tomato) was “active” and the “Disease control efficacy (average of two repeat experiments)” value (“Disease control efficacy” for short) ([2]; tomato leaf piece, applied prior to inoculation, visual 3 band score) was 99. For the same compound, the “Disease control efficacy” value [3] was 0, the “activity in mycelial growth test” value [3] was “not active” and the “Leaf-piece test rates (20 ppm), efficacy” value ([4]; 20 ppm) was 0%. The “Leaf-piece test rates (60 ppm), efficacy” value ([4]; 60 ppm) was 0%, the “Leaf-piece test rates (200 ppm), efficacy” value ([4]; 200 ppm) was 0% and the “ED50 (cytotoxicity)” value [5] was 2 µg/mL (≈ 4.61 µM). The “activity in liquid-culture test” value [6] was “demonstrated activity”, the “Liquid-culture test rates (0.2 ppm), efficacy” value [6, 28] was 0% and the “Liquid-culture test rates (2 ppm), efficacy” value [6, 29] was 50%. The “Liquid-culture test rates (20 ppm), efficacy” value [6, 30] was 70%, the “activity in liquid-culture test” value [7] was “demonstrated activity” and the “Liquid-culture test rates (0.2 ppm), efficacy” value [7, 28] was 0%. The “Liquid-culture test rates (2 ppm), efficacy” value [7, 29] was 100%, the “Liquid-culture test rates (20 ppm), efficacy” value [7, 30] was 100% and the acute toxicity [8] was “low acute toxicity”. The “Leaf-piece test rates (20 ppm), efficacy” value ([9]; 20 ppm) was 0%, the “Leaf-piece test rates (60 ppm), efficacy” value ([9]; 60 ppm) was 0% and the “Leaf-piece test rates (200 ppm), efficacy” value ([9]; 200 ppm) was 0%. For the same compound, the “Disease control efficacy” value [10] was 49, the “activity in leaf-piece assay” value [10] was “active in one rep” and the “Leaf-piece test rates (20 ppm), efficacy” value ([11]; 20 ppm) was 0%. The “Leaf-piece test rates (60 ppm), efficacy” value ([11]; 60 ppm) was 0%, the “Leaf-piece test rates (200 ppm), efficacy” value ([11]; 200 ppm) was 0% and the “activity in liquid-culture test” value [12] was “demonstrated activity”. The “Liquid-culture test rates (0.2 ppm), efficacy” value [12, 28] was 0%, the “Liquid-culture test rates (2 ppm), efficacy” value [12, 29] was 20% and the “Liquid-culture test rates (20 ppm), efficacy” value [12, 30] was 50%. The “activity in liquid-culture test” value [13] was “demonstrated activity”, the “Liquid-culture test rates (0.2 ppm), efficacy” value [13, 28] was 90% and the “Liquid-culture test rates (2 ppm), efficacy” value [13, 29] was 100%. For the same compound, the “Liquid-culture test rates (20 ppm), efficacy” value [13, 30] was 100%, the “activity in liquid-culture test” value [14] was “demonstrated activity” and the “Liquid-culture test rates (0.2 ppm), efficacy” value [14, 28] was 0%. For the same compound, the “Liquid-culture test rates (2 ppm), efficacy” value [14, 29] was 90%, the “Liquid-culture test rates (20 ppm), efficacy” value [14, 30] was 100% and the “activity in mycelial growth test” value [15] was “not active”. For the same compound, the “Disease control efficacy” value ([15]; artificial media, visual 3 band score, 4 to 14 days after inoculation) was 0, the “Leaf-piece test rates (20 ppm), efficacy” value ([16]; 20 ppm) was 0% and the “Leaf-piece test rates (60 ppm), efficacy” value ([16]; 60 ppm) was 0%. The “Leaf-piece test rates (200 ppm), efficacy” value ([16]; 200 ppm) was 0%, the “activity in liquid-culture test” value [17] was “demonstrated activity” and the “Liquid-culture test rates (0.2 ppm), efficacy” value [17, 28] was 0%. For the same compound, the “Liquid-culture test rates (2 ppm), efficacy” value [17, 29] was 70%, the “Liquid-culture test rates (20 ppm), efficacy” value [17, 30] was 100% and the “activity in liquid-culture test” value [18] was “demonstrated activity”. The “Liquid-culture test rates (0.2 ppm), efficacy” value [18, 28] was 0%, the “Liquid-culture test rates (2 ppm), efficacy” value [18, 29] was 50% and the “Liquid-culture test rates (20 ppm), efficacy” value [18, 30] was 100%. For the same compound, the “activity in liquid-culture test” value [19] was “demonstrated activity”, the “Liquid-culture test rates (0.2 ppm), efficacy” value [19, 28] was 0% and the “Liquid-culture test rates (2 ppm), efficacy” value [19, 29] was 100%. For the same compound, the “Liquid-culture test rates (20 ppm), efficacy” value [19, 30] was 100%, the “Disease control efficacy” value [20] was 0 and the “activity in mycelial growth test” value [20] was “not active”. For the same compound, the “Disease control efficacy” value [21] was 99, the “activity in mycelial growth test” value [21] was “active” and the “Liquid-culture test rates (0.2 ppm), efficacy” value ([22]; 0.2 ppm) was 0%. The “Liquid-culture test rates (2 ppm), efficacy” value ([22]; 2 ppm) was 0%, the “Liquid-culture test rates (20 ppm), efficacy” value ([22]; 20 ppm) was 0% and the “Leaf-piece test rates (20 ppm), efficacy” value ([23]; 20 ppm) was 0%. The “Leaf-piece test rates (60 ppm), efficacy” value ([23]; 60 ppm) was 0%, the “Leaf-piece test rates (200 ppm), efficacy” value ([23]; 200 ppm) was 0% and the “Disease control efficacy” value [24] was 99. The “activity in leaf-piece assay” value [24] was “active”, the “Liquid-culture test rates (0.2 ppm), efficacy” value ([25]; 0.2 ppm) was 0% and the “Liquid-culture test rates (2 ppm), efficacy” value ([25]; 2 ppm) was 0%. The “Liquid-culture test rates (20 ppm), efficacy” value ([25]; 20 ppm) was 0%, the “Leaf-piece test rates (20 ppm), efficacy” value ([26]; 20 ppm) was 0% and the “Leaf-piece test rates (60 ppm), efficacy” value ([26]; 60 ppm) was 0%. The “Leaf-piece test rates (200 ppm), efficacy” value ([26]; 200 ppm) was 0%, the “Leaf-piece test rates (20 ppm), efficacy” value ([27]; 20 ppm) was 0% and the “Leaf-piece test rates (60 ppm), efficacy” value ([27]; 60 ppm) was 0%. For the same compound, the “Leaf-piece test rates (200 ppm), efficacy” value ([27]; 200 ppm) was 0%.
